From US20100022600A1, “METHODS AND COMPOSITIONS FOR TREATING CENTRAL NERVOUS SYSTEM TUMORS” (priority 2006, published 2010)

Key:
[1] = system: C6 glioma cell cultures; test: Ki-67 immunoreactivity and proliferation-index in vitro; format: cell-based, rat; conditions: 30 μM pio, 2 d and 5 d
Description: C6 glioma cell cultures were treated with pio or vehicle for 2 d and 5 d and fixed in 4% paraformaldehyde, rinsed in TBS and incubated with rabbit anti-Ki-67 (1:200 dilution) at 4° C. overnight and processed as described above. Counterstaining was carried out with propidium iodide (P1; 1:40; Sigma, St. Louis, Mo., USA) or DAPI-staining (1:500 in PBS). For determination of the proliferation-index, Ki-67 positive cells in pio and vehicle treated cells and animals were counted, the percentage of Ki-67 positive cells in 1×10^3 tumor cells (P1 staining used in the in vitro experiments—not shown; DAPI stain used in the in vivo experiments) calculated and statistically compared. The percentage of cleaved caspase-3 positive cells was assessed by counting the immunopositive cells in 1×10^3 tumor (DAPI stain) cells and statistically compared.

[2] = system: cleaved caspase-3; test: Immunohistochemistry of cleaved caspase-3 in tumors, C6 rat glioma model; format: in vivo; conditions: 6 to 14 days of pio treatment, significant maximum at 9 d
Description: Frozen brain sections were first blocked with 5% normal goat serum or normal horse serum in PBS and subsequently incubated with rabbit anti-Ki-67 antibody (1:200 dilution), mouse anti-CS-56 (1:100 dilution), goat anti-MMP-9 (1:100 dilution) or rabbit anti-cleaved caspase-3 antibody (1:200 dilution) at 4° C. overnight. Sections were washed extensively with PBS before incubation with secondary antibodies. Incubation was carried at room temperature for 1 h. After washing with PBS three times, stained slides were mounted with PBS/glycerol (1:1) and viewed under a fluorescent microscope (Leica, Germany). […] The percentage of cleaved caspase-3 positive cells was assessed by counting the immunopositive cells in 1×10^3 tumor (DAPI stain) cells and statistically compared.

[3] = system: human glioma cells A172; test: MTT viability assay, human A172 glioma cells; format: cell-based; conditions: 30 μM pio; 3, 5 and 7 d
Description: (§1) Rat C6 glioma cells were grown in DMEM and human glioma cells (U87, A172) in RPMI, supplemented with 10% (v/v) fetal calf serum, 100 U/mL penicillin and 100 U/mL streptomycin in a 5% CO2 atmosphere. Primary astrocyte cultures were prepared as described previously (J Neurosci 1998; 18: 4451-60) and grown in DMEM, supplemented with 2.5% (v/v) fetal calf serum, 100 U/mL penicillin and 100 U/mL streptomycin in a 5% CO2 atmosphere. […] Experiments were performed in triplicate.

[4] = system: primary astrocytes; test: MTT viability assay, primary astrocytes; format: cell-based; conditions: 1, 10, 30 μM; 1, 3, 5, 7 d
Description: as §1

[5] = system: C6 glioma cells injected in rat striata; test: C6 rat glioma model, tumor volume and histology; format: in vivo; conditions: for reduction of tumor volume compared to vehicle: 21 d
Description: Spraque-Dawley rats (Charles River Laboratories, Sulzfeld, Germany), weighting 200-250 g were used. Animals were housed in groups of two under standard conditions at a temperature of 22° C.±1 and a 12-h light-dark cycle with free access to food and water. Experiments were carried out in accordance with the declaration of Helsinki and were approved by the local ethical committee for animal experiments. Before implantation, 85-90% confluent C6 cells were trypsinized, rinsed with DMEM+10% fetal calf serum, and centrifuged at 1000 rpm for 4 min. The cell pellet was resuspended in DMEM and placed on ice. Concentration of viable cells was adjusted to 1×10^5 cells/1 μl of DMEM. Each rat was anesthetized and placed in a stereotactic frame (David Kopf Instruments, Tujunga, Calif., USA), a hole was drilled at AP 0.0, R -3.0 relative to bregma according to the stereotaxic atlas of […], 1963). Tumor cells were injected at a rate of 0.5 μl/s, using a 2 μl Hamilton (#2701) syringe (Reno, Nev., USA) with a 26 s-gauge needle mounted on a stereotactic holder at a depth of 5 mm. […] For intracerebral administration of pio/vehicle (DMSO), the tip of an Alzet-brain-infusion-kit (Cupertino, Calif., USA) was placed in a depth of 5 mm, connected to a 2ML4 Alzet osmotic pump (Cupertino, Calif., USA). Drug administration began 4 h after surgery. […] The pumps were filled with 20 μM pio solved in PBS or vehicle (DMSO, 0.1% final concentration) solved in PBS. Animals were randomly distributed in two groups, treated with pio filled pumps (n=26) or vehicle filled pumps (n=26). Thereafter skull was cleaned and the incision sutured. […] Control animals received Purina chow without additions. Rats were allowed free access to the chow. Tumors were allowed to grow and animals were weighed daily. […] Brains were serially sectioned at 10 μm using a cryostat (Leica, Jung CMI800, Germany). Sections for hematoxylin-eosin (HE)-staining were placed onto uncoated slides. Sections intended for use in immunoreactivity assays were placed onto coded slides (Fisher finest, premium; Houston, Tex., USA). Sections were routinely HE-stained for histomorphological assessment and measurement of tumor volume as well as immunohistochemically processed for Ki-67-, BAX, cleaved caspase-3-expression, MMP9, CS-56 and BrdU-incorporation. Images of HE-stained sections containing the tumor were captured with a SPOT model 1.3 camera (Diagnostic Instruments, Inc., Sterling Heights, Mich., USA) using a 1× objective and images processed using NIH Image 1.62 software (Bethesda, Md., USA). The tumor area of each section was manually outlined by a blinded observer using the freehand selection tool to measure tumor area in mm^2. The area was then multiplied by the section thickness (10 μm section, 10 sections/HE stain) to achieve a section volume measurement. Volumes of all sections were added to calculate the total volume of each tumor. Tumor volumes for five/six animals of every group were measured.

[6] = system: CS-56; test: CS-56 expression in tumor cells in vitro; format: cell-based; conditions: data not shown
[7] = system: human glioma cells U87; test: MTT viability assay, human U87 glioma cells; format: cell-based; conditions: 30 μM pio; 3, 5 and 7 d
Description: as §1

[8] = Clinical assessment of neurological deficits in C6 rat glioma model; format: in vivo; conditions: intracerebral treatment, 21 d
Description: After striatal injection of C6 cells and intracerebral treatment with pio or vehicle for 21 d, the animals were examined for neurological deficits. Neurological function was quantified by evaluation of hemiparesis, cycling and immobility (J Neurosurg 1986; 65: 222-9, Stroke 1999; 30: 427-31; discussion 431-2). Hemiparesis was assessed by forelimb flexion and immobility by the loss of ability to walk a distance greater than 15 cm. One point was given for each negative finding and total score then computed. The scores of the treated and untreated group were averaged. A blinded observer performed neurological examinations.

Compound: CCc1ccc(CCOc2ccc(CC3SC(=O)NC3=O)cc2)nc1 (stereo not shown) [pioglitazone, 5-[4-[2-(5-ethylpyridin-2-yl)ethoxyl]benzyl]thiazolidine-2,4-dione]
- number of Ki-67 immunopositive cells compared to vehicle [1]: reduced the number of Ki-67 immunopositive cells
- cleaved caspase-3 expression (immunohistochemistry) [2]: elevated cleaved caspase-3 expression
- cellular viability, effect in words [3]: significantly reduced cellular viability
- viability of primary astrocytes [4]: not affected
- tumor volume compared to vehicle, in words ([5]; intracerebral, 3 and 6 days): no significant differences
- tumor volume compared to vehicle, in words ([5]; intracerebral, 9, 14 and 21 days): decreased significantly
- reduction of tumor volume compared to vehicle ([5]; intracerebral, pio 20 μM via osmotic pump): 83%
- reduction of tumor volume compared to vehicle ([5]; oral treatment (in chow)): 77%
- reduction of tumor volume compared to vehicle ([5]; oral treatment (in chow), listed as pio): 76.9%
- histological evaluation of tumor margins and invasiveness ([5]; pio treated in vivo gliomas): more defined tumor margins and decreased invasiveness
- CS-56 expression in vitro [6]: highly upregulated
- cellular viability, effect in words [7]: significantly reduced cellular viability
- clinical outcome overall [8]: significant better clinical outcome
- cycling ([8]; versus vehicle): no cycling
- hemiparesis ([8]; versus vehicle): less hemiparesis
- immobility ([8]; versus vehicle): less immobility
